Source: ChEMBL document CHEMBL1201862, “PubChem BioAssay data set” (2004)
Active and inactive are the calls of the source.

Key:
Phospholipase D1 = Phospholipase D1 (Homo sapiens, UniProt Q13393); assay: cellular phospholipase D1 inhibition IC50 – cell-based, dose response (AID 602151); assay type: functional;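 note: cellular PLD1 assay in Calu-1 cells stimulated with PMA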
Phospholipase D2 = Phospholipase D2 (Homo sapiens, UniProt O14939); assay: cellular phospholipase D2 inhibition IC50 – cell-based, dose response (AID 602147); assay type: functional;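 note: cellular assay in HEK293 cells overexpressing GFP-tagged PLD2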
INS1 = assay: INS-1E mitochondrial potential loss inhibitors – cell-based, JC-1 fluorescence, dry powder, set 2, dose response (AID 488867); assay type: functional; settings: Rattus norvegicus
[1] = target: Beta-adrenergic receptor kinase 1 (Homo sapiens, UniProt P25098); assay: aptamer displacement from bead-bound GRK2 – biochemical, cherry pick 1, bead flow cytometry, dose response (AID 504500)
[2] = target: T1, Carboxy-terminal domain RNA polymerase II polypeptide A small phosphatase 1 (Homo sapiens, UniProt Q9GZU7); assay: CTDSP1 inhibitors, concentration-response, biochemical, absorbance readout, ultra-high-throughput screen actives (AID 540297); assay type: functional
T1 sequence (Q9GZU7 whole entry): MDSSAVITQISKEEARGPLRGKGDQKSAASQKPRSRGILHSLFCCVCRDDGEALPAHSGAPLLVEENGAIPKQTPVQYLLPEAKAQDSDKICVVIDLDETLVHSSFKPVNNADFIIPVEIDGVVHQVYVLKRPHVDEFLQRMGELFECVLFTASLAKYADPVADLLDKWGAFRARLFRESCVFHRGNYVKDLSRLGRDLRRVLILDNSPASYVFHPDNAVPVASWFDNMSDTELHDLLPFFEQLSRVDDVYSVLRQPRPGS

Caspase-6 = target: T2, Caspase-6 (Homo sapiens, UniProt P55212); assay: inhibition of CASP6 peptide cleavage – biochemical, VEID-R110 fluorescence, cherry-pick, dose response (AID 720632)
T2 sequence (P55212 whole entry): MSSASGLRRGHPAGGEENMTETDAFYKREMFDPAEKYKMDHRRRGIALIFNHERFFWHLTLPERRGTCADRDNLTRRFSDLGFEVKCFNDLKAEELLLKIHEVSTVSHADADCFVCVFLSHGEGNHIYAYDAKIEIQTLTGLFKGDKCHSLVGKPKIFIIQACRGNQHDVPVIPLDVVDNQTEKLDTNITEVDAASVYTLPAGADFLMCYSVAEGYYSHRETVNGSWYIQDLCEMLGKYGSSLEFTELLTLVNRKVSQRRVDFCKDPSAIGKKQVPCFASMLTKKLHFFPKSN

Caspase-7 = target: T3, Caspase-7 (Homo sapiens, UniProt P55210); assay: caspase-7 enzyme inhibition, selectivity check – biochemical, DEVD-R110 fluorescence, cherry-pick, selectivity assay for caspase-6 inhibitor project, dose response (AID 743295); assay type: functional
T3 sequence (P55210 whole entry): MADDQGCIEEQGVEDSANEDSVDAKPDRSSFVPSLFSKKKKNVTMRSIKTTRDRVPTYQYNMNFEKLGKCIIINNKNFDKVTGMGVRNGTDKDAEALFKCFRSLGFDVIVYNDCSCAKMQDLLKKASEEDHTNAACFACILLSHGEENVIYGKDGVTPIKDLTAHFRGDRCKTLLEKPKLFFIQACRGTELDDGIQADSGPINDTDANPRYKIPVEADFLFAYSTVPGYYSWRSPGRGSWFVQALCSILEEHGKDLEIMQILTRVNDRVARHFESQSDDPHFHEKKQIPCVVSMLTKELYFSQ

Caspase-8 = Caspase-8 (Homo sapiens, UniProt Q14790); assay: inhibitors of purified CASP8 protease – biochemical, Z-IETD-R110 fluorescence, cherry-picked samples, selectivity assay for caspase-6 inhibitor project, dose response (AID 743294)
[3] = target: Dual specificity protein kinase CLK1 (Homo sapiens, UniProt P49759); assay: inhibition of human CLK1 activity – biochemical, cherry-picked samples, selectivity assay for Dyrk1A inhibitor project, dose response (AID 588811)
Leucine aminopeptidase = target: T4, Leucine aminopeptidase (Plasmodium falciparum 3D7, UniProt Q8IL11); assay: P. falciparum M17LAP inhibitors, primary screen, biochemical, fluorogenic H-Leu-NHMec substrate, 1536-well (AID 1619); assay type: functional
T4 sequence (Q8IL11 whole entry): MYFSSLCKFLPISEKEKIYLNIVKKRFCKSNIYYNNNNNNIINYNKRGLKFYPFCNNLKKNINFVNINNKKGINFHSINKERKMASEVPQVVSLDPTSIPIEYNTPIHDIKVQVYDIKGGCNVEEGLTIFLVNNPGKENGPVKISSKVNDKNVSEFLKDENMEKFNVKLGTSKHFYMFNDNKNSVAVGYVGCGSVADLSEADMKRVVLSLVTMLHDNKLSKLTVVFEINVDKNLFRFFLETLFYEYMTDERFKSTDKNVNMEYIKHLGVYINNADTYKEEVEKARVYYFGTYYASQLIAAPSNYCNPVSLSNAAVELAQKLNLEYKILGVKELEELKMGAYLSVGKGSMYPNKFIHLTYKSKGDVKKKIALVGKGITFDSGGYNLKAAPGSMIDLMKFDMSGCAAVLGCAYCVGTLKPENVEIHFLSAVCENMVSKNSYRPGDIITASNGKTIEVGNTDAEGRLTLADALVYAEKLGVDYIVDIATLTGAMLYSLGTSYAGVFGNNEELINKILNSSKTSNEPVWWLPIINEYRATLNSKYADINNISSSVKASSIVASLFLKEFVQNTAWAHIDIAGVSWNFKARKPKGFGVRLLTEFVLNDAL

Aspartyl aminopeptidase = Aspartyl aminopeptidase (Plasmodium falciparum 3D7, UniProt Q8I2J3); assay: Counterscreen for inhibitors of M1 and M17 aminopeptidases: QFRET-based biochemical high throughput dose response assay for inhibitors of the Plasmodium falciparum M18 Aspartyl Aminopeptidase (PFM18AAP). [Related PubChem assays: 1619 (Screening assay (M17LAP inhibitors).), 1445 (Screening assay (M1AAP inhibitors).)]
Procathepsin L = Procathepsin L (Homo sapiens, UniProt P07711); assay: CTSL1 protease inhibition – biochemical, QFRET, 1536-well, counter-screen for M1/M17 aminopeptidase inhibitor project, dose response (AID 2214)
HEK293 = assay: EBV LMP1 TES2 canonical NF-kB signalling blockers – cell-based, HEK293, luciferase, cherry-pick, dose response (AID 588343); assay type: functional; settings: Homo sapiens
[4] = target: Potassium voltage-gated channel subfamily KQT member 2 (Rattus norvegicus, UniProt O88943, W236L); assay: potentiation of rat KCNQ2 current – cell-based, automated electrophysiology, mechanism study for KCNQ2 potentiator project, dose response (AID 2603); assay type: functional
[5] = target: T5, Replicative DNA helicase DnaB (Mycobacterium tuberculosis, UniProt P9WMR3); assay: DnaB intein splicing inhibitors, dose response, biochemical, cell-free fluorescence (AID 449749); assay type: functional
T5 sequence (P9WMR3 whole entry): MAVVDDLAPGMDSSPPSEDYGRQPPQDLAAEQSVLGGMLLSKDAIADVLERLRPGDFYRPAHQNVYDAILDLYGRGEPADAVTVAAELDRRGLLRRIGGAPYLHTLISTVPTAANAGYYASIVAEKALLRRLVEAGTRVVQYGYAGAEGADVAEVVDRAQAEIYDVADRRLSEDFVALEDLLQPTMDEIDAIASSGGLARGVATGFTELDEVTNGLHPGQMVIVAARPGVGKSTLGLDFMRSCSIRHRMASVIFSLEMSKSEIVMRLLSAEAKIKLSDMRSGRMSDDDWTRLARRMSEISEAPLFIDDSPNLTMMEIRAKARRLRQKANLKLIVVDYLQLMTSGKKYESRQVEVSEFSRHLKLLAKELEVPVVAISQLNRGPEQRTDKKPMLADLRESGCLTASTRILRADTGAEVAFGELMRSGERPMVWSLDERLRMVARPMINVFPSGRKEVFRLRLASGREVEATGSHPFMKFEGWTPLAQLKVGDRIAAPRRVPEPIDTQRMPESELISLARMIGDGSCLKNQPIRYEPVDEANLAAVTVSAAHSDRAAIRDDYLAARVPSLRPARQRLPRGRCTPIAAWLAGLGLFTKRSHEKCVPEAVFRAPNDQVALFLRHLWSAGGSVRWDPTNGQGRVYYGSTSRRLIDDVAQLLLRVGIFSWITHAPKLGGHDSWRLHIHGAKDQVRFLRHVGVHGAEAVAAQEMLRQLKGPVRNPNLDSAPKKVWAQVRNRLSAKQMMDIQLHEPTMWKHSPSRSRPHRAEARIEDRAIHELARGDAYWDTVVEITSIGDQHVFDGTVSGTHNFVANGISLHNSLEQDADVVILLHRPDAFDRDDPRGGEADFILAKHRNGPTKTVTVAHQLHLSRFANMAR

Vero = assay: viability of Vero cells under compound – cytotoxicity control for flavivirus capping enzyme inhibitors (AID 588742); assay type: functional; settings: Chlorocebus sabaeus
Protein RecA = target: T6, Protein RecA (Mycobacterium tuberculosis, UniProt P9WHJ3); assay: Fluorescence Cell-Free Homogeneous Dose Retest to Identify Inhibitors of RecA-Intein Splicing Activity. [Related pubchem assays (depositor defined):AID2097, AID2223, AID489010, AID492950]; assay type: functional
T6 sequence (P9WHJ3 whole entry): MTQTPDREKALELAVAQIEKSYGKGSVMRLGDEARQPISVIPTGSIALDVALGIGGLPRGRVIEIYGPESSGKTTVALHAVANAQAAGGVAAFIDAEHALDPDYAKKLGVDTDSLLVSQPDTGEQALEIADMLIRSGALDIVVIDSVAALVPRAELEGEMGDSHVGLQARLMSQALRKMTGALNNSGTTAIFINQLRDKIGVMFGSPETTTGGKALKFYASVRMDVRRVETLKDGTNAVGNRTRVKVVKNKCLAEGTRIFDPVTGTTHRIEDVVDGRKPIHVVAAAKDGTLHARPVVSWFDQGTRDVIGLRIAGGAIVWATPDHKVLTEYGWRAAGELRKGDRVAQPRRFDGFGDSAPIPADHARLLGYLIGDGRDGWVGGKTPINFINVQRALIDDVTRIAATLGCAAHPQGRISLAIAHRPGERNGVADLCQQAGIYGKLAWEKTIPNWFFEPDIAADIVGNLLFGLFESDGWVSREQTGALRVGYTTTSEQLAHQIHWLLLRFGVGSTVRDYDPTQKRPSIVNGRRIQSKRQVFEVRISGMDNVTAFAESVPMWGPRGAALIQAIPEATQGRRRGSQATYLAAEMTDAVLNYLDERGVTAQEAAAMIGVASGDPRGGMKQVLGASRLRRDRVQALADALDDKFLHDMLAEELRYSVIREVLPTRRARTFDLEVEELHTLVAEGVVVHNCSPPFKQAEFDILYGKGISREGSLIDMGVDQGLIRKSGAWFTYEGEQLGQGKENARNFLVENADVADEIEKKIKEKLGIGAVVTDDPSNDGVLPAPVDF

Genome polyprotein = Genome polyprotein (dengue virus type 2, UniProt P29990); assay: flavivirus cap methylation enzyme inhibition – biochemical, confirmation dose response, primary screen (AID 588689); assay type: functional
[6] = reduction of Shn3 3'UTR-driven luciferase in osteoblasts – cell-based, Clone20 osteoblasts, firefly luciferase, cherry-picked, dose response (AID 624132); assay type: functional;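 note: firefly luciferase luminescence from reporter carrying the Shn3 3'UTR in osteoblasts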
[7] = loss of viability in HepG2 cells – cell-based, CellTiter-Glo, cherry-picked, cytotoxicity control for Shn3 inhibitor project, dose response (AID 624134); assay type: functional
[8] = non-specific 3'UTR reporter inhibition in Clone20-Shn3RL – cell-based, Renilla luciferase, cherry-picked, counter-screen for Shn3 inhibitor project, dose response (AID 624133); assay type: functional
[9] = target: T7, Hepatocyte nuclear factor 4-alpha (Homo sapiens, UniProt P41235); assay type: functional, cell-based;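 note: biochemical luminescence-based dose-response counterscreen measuring inhibition of HNF4 dimerization, run alongside a screen for blockers of ABHD5–perilipin-5 interaction; split luciferase complementation of HNF4 fusion proteins in cell lysate measuring dimerization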
T7 sequence (P41235 whole entry): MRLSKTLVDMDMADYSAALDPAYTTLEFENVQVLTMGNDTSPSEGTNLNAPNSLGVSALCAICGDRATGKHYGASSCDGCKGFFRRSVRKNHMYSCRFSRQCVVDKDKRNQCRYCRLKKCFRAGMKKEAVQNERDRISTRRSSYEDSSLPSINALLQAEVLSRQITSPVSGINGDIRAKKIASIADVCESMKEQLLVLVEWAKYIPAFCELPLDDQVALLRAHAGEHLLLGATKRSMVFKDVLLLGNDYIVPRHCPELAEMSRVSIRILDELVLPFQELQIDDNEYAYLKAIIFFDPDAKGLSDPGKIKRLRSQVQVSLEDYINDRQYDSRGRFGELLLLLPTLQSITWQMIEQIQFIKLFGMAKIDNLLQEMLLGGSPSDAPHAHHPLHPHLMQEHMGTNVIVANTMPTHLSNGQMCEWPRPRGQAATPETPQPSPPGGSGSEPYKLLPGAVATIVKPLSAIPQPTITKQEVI

Sequence of Potassium voltage-gated channel subfamily KQT member 2 (O88943 whole entry W236L): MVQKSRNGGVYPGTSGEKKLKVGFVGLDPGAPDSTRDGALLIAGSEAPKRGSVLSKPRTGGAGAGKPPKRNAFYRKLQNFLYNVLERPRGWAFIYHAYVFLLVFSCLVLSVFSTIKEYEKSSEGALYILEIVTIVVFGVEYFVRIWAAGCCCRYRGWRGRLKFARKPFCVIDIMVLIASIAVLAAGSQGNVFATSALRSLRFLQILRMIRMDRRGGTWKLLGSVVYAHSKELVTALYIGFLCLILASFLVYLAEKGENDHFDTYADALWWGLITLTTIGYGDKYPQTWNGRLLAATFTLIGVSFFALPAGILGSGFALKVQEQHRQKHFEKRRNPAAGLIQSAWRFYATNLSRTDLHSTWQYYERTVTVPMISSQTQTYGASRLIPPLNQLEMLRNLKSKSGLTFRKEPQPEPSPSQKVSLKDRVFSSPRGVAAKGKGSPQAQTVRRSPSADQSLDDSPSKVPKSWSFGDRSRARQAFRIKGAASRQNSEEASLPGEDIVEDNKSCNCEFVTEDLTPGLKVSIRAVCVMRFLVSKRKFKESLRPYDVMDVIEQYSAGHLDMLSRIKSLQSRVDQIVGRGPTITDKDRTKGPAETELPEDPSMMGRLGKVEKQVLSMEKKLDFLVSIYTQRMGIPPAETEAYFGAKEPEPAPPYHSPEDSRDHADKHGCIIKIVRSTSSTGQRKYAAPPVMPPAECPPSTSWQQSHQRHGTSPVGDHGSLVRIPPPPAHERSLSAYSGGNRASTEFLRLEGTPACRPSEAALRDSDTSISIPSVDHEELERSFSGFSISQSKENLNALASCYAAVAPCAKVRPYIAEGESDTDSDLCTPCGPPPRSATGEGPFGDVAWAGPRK
Sequence of Caspase-8 (Q14790 217-374 limits assumed): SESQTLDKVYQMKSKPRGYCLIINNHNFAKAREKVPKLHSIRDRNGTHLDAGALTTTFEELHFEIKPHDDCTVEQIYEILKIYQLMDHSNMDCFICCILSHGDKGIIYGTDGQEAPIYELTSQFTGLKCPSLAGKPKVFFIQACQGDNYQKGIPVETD
Sequence of Caspase-8 (Q14790 385-479 limits assumed): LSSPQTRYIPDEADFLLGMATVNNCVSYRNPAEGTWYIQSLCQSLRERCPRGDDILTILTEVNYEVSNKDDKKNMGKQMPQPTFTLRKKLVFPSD
Sequence of Genome polyprotein (P29990 2492-3391 limits assumed): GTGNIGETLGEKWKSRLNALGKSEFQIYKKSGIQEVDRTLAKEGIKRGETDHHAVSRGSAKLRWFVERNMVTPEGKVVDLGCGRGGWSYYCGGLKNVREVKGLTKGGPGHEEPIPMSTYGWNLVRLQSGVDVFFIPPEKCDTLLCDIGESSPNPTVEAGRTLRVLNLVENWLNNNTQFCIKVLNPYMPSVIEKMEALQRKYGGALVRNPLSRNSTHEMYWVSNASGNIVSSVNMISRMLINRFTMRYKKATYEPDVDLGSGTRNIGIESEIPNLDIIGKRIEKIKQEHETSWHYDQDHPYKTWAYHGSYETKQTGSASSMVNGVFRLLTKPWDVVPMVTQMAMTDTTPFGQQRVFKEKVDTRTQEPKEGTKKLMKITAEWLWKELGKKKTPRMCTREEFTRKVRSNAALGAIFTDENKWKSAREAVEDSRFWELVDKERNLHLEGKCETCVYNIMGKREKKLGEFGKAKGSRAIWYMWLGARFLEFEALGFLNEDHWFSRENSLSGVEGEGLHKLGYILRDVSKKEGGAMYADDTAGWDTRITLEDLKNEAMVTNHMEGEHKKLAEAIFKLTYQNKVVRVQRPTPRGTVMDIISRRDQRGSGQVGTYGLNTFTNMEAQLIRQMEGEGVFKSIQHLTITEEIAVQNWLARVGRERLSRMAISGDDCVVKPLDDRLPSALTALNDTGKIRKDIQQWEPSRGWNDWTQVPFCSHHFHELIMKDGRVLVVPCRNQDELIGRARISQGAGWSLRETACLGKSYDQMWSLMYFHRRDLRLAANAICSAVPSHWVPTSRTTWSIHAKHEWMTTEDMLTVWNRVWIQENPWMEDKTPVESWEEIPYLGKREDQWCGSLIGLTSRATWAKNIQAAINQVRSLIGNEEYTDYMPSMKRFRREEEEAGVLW
Sequence of Beta-adrenergic receptor kinase 1 (P25098 whole entry, the tested form may be a part): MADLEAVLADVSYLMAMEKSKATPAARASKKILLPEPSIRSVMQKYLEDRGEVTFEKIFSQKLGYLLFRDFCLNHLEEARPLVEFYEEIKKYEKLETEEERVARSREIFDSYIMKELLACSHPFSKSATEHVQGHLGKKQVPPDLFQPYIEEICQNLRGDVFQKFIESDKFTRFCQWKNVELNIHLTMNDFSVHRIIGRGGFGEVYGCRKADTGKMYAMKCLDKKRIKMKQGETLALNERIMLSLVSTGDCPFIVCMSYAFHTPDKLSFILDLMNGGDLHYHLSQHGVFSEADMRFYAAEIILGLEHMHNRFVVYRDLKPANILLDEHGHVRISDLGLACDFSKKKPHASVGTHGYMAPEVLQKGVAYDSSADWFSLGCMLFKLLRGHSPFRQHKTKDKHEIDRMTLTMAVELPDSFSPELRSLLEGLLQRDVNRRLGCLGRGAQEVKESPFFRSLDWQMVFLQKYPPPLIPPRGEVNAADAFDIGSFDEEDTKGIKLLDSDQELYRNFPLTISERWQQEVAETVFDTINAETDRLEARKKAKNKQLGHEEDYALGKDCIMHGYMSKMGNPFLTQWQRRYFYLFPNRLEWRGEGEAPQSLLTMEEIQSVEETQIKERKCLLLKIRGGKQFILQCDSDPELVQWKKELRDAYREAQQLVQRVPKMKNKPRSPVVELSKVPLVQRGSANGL
Sequence of Phospholipase D2 (O14939 whole entry): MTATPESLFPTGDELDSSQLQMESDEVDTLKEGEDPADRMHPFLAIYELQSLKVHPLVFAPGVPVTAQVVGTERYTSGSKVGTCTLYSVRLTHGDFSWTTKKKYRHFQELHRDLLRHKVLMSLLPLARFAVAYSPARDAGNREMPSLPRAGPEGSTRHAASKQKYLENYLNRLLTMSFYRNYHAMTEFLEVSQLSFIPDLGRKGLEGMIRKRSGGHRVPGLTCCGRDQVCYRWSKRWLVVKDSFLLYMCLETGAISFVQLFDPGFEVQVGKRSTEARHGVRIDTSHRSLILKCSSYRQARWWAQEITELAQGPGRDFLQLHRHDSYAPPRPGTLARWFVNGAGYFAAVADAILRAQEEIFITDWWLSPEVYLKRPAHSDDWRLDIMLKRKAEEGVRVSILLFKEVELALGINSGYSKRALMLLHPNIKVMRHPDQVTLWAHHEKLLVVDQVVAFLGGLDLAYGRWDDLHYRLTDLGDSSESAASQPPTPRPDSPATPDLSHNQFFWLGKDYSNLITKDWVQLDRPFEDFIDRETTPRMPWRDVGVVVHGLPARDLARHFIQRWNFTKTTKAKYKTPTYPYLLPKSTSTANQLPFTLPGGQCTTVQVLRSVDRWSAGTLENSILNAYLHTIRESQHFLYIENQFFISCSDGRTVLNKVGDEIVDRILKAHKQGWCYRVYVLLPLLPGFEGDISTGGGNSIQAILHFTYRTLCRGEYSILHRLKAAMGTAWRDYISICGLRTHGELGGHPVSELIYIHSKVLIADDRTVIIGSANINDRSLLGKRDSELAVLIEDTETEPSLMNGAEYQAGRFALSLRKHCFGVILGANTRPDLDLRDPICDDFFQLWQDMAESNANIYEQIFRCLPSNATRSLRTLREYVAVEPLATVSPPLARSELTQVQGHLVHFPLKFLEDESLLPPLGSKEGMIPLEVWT
Sequence of Phospholipase D1 (Q13393 whole entry): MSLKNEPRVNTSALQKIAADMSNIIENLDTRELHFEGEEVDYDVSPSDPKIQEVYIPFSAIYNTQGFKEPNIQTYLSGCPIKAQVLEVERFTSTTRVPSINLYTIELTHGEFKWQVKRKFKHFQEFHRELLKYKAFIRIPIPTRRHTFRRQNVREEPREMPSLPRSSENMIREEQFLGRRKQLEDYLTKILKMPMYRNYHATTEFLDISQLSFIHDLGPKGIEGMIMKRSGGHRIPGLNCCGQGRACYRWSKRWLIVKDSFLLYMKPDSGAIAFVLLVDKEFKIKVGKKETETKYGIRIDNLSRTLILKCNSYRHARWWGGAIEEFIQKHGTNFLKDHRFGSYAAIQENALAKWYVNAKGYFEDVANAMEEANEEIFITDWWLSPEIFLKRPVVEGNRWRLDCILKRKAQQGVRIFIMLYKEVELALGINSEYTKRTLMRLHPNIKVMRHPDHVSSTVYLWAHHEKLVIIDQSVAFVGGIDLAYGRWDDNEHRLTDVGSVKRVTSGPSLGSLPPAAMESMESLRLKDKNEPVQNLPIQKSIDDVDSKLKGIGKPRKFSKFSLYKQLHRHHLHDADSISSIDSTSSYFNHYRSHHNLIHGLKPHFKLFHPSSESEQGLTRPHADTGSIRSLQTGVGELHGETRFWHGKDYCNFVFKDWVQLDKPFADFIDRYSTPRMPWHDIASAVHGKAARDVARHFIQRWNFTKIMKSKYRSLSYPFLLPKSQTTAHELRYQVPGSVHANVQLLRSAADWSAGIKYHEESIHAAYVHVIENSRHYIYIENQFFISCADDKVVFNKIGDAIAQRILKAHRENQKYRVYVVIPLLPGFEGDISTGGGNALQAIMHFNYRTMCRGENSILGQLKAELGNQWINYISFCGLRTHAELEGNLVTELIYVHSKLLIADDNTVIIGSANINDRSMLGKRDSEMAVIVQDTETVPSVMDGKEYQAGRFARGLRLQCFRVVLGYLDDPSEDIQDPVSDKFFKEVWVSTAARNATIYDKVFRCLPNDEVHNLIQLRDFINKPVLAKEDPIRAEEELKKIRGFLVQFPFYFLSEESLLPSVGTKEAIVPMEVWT
Sequence of Procathepsin L (P07711 whole entry): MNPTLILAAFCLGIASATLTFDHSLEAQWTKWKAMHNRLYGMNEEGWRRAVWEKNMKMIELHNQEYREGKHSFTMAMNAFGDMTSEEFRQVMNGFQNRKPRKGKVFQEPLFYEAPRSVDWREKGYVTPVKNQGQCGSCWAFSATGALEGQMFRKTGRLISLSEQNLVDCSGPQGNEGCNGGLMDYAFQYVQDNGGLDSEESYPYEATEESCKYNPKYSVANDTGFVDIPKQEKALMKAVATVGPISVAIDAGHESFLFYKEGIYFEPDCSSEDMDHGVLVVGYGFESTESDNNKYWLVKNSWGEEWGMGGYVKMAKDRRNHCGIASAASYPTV

C[C@H](CN1CCC(n2nnc3ccccc32)CC1)NC(=O)c1ccc2ccccc2c1
IC50 (Phospholipase D1): 3.8 µM (active)
IC50 (Phospholipase D2): 12 µM (active)

COc1ccc(S(=O)(=O)N(C)C[C@@H]2Oc3c(NC(=O)NC(C)C)cccc3C(=O)N([C@@H](C)CO)C[C@H]2C)cc1
AC50 (INS1): 46.4 µM (active)

O=C(O)C1CCCCC1C(=O)Nc1cccc(Br)c1 (configuration not stated)
EC50 [1]: 3.85 µM (active)
IC50 [2]: 3.06 µM (active)
AC50 (Caspase-6): 0.669 µM (active)
AC50 (Caspase-7): > 70 µM (inactive)
AC50 (Caspase-8): 25.8 µM (active)

CN(Cc1nccs1)c1ncnc2ccc(-c3ccc4c(c3)OCO4)cc12
AC50 [3]: < 0.00195 µM (active)

Cc1cc(C(=O)COC(=O)c2cccnc2O)c(C)n1-c1ccccc1
IC50 (Leucine aminopeptidase): 2.67 µM (active)
IC50 (Aspartyl aminopeptidase): > 73.5 µM (not active)
IC50 (Procathepsin L): > 59.6 µM (not active)
AC50 (HEK293): 9.69 µM (active)

CCc1nnc(NC(=O)c2nc(S(=O)(=O)Cc3ccccc3)ncc2Cl)s1
EC50 [4]: 17.3 µM (active)
AC50 [5]: 18.5 µM (active)
CC50 (Vero): 27.6 µM (active)
EC50 (Protein RecA): 5.09 µM (active)
IC50 (Genome polyprotein): > 100 µM (active)
AC50 [6]: 2.72 µM (active)
AC50 [7]: > 70 µM (inactive)
AC50 [8]: 11.1 µM (active)
IC50 [9]: 5.95 µM (active)
